Source: publication PMC5766581, “NF-κB inducing kinase is a therapeutic target for systemic lupus erythematosus” (Nature Communications, 2018)

Legend:
Assay in all cases: SelectScreen kinase panel
Type in all cases: binding
[1] = molecular target: T1, BMPR1A (Homo sapiens, UniProt P36894)
T1 construct: purchased Invitrogen / ThermoFisher SelectScreen
Description: (§1) The ability of NIK to catalyze the hydrolysis of adenosine-5′-triphosphate (ATP) was monitored using the Transcreener ADP (adenosine-5′-diphosphate) assay (Bell Brook Labs, Fitchburg, WI). Purified human NIK kinase domain (a.a. 340–694) (0.5 nM) or mouse NIK kinase domain (a.a. 329–675) (1 nM) derived from a baculovirus-infected insect cell expression system was incubated with test compounds for 0.5–2 h in 50 mM HEPES buffer (pH 7.2) containing 10 mM MgCl2, 2 mM dithiothreitol, 10 μM ATP, 0.01% Triton X-100, 0.1% gamma-globulins from bovine blood, 1% dimethylsulfoxide (DMSO), 7 μg/mL ADP antibody and 5 nM ADP-MR121 633 tracer. Reactions were quenched by the addition of 20 mM EDTA and 0.01% Brij 35. The tracer bound to the antibody was displaced by the ADP generated during the NIK reaction, which caused a decrease in fluorescence polarization that was measured by laser excitation at 633 nm with a Fluorescence Correlation Spectroscopy Plus reader (Evotec AG). Equilibrium dissociation constant (Ki) values for NIK inhibitors are calculated from plots of activity vs. inhibitor concentration using Morrison’s quadratic equation that accounts for the potential of tight binding, and by also applying the conversion factor that accounted for competitive inhibition and the concentration of substrate used in the assay relative to its Michaelis constant (Km). The Ki values with hPKD1 (PKCμ) were determined using the same assay conditions as for NIK. Ki measurements for hKHS1 and hLRRK2, as well as broad kinase selectivity profiling for SMI1, were carried out by Invitrogen using their SelectScreen kinase assay panel (ThermoFisher Scientific, Madison, WI). The vendor offered two types of kinase activity assays, a peptide phosphorylation assay (Z′-LYTE) and an ADP quantitation assay (Adapta), as well as one type of kinase ATP site competitive binding assay (LanthaScreen). See vendor web site for technology and protocol details for each specific kinase assay.
(§2) The average % Inhibition of each kinase is reported (Supplementary Table 1).

[2] = molecular target: T2, CAMKK1 (Homo sapiens, UniProt Q8N5S9)
T2 construct: purchased Invitrogen / ThermoFisher SelectScreen
T2 sequence (Q8N5S9 whole entry): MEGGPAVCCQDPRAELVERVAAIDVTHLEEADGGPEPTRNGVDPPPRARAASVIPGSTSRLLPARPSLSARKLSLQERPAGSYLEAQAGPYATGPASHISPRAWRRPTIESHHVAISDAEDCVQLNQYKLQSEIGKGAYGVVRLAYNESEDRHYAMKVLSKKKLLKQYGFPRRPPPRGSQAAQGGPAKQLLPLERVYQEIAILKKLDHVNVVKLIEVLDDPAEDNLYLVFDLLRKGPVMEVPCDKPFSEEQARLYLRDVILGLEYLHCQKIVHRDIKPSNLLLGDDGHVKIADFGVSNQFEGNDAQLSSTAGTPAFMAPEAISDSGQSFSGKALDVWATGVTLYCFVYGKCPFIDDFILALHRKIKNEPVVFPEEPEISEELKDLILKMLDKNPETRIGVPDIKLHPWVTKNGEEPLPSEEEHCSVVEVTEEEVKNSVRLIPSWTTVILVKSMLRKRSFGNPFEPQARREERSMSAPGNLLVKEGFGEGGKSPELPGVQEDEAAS
Description: as §1, §2

[3] = molecular target: T3, DMPK (Homo sapiens, UniProt Q09013)
T3 construct: purchased Invitrogen / ThermoFisher SelectScreen
T3 sequence (Q09013 whole entry): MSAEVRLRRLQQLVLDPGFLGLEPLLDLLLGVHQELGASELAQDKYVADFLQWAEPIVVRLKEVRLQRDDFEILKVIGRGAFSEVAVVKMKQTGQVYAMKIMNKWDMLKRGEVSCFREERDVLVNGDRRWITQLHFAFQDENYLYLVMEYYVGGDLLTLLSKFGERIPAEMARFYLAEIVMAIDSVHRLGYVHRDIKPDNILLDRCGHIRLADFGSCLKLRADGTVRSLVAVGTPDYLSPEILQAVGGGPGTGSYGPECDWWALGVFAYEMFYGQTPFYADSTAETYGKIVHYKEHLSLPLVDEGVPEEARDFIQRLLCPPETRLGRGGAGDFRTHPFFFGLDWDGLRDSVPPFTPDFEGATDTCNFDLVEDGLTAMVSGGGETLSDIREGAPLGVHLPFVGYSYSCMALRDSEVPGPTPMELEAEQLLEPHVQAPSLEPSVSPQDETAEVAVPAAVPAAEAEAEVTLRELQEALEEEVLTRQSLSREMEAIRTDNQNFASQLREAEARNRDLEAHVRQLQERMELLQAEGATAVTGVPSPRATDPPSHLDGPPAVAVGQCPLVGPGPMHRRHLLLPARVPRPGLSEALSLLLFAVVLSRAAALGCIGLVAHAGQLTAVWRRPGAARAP
Description: as §1, §2

[4] = molecular target: T4, DRAK1 (Homo sapiens, UniProt Q9UEE5)
T4 construct: purchased Invitrogen / ThermoFisher SelectScreen
T4 sequence (Q9UEE5 whole entry): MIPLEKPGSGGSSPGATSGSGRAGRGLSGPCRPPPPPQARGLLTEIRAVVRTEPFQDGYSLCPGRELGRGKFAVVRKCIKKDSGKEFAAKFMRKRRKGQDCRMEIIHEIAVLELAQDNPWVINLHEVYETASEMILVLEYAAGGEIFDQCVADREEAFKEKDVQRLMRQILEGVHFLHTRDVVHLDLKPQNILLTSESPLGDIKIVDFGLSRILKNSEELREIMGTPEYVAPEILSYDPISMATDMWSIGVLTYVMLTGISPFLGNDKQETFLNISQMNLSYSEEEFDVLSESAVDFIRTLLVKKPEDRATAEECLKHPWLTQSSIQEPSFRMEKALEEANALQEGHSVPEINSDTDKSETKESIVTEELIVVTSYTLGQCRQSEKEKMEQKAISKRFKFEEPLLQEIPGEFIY
Description: as §1, §2

[5] = molecular target: T5, EphA3 (Homo sapiens, UniProt P29320)
T5 construct: purchased Invitrogen / ThermoFisher SelectScreen
T5 sequence (P29320 21-983): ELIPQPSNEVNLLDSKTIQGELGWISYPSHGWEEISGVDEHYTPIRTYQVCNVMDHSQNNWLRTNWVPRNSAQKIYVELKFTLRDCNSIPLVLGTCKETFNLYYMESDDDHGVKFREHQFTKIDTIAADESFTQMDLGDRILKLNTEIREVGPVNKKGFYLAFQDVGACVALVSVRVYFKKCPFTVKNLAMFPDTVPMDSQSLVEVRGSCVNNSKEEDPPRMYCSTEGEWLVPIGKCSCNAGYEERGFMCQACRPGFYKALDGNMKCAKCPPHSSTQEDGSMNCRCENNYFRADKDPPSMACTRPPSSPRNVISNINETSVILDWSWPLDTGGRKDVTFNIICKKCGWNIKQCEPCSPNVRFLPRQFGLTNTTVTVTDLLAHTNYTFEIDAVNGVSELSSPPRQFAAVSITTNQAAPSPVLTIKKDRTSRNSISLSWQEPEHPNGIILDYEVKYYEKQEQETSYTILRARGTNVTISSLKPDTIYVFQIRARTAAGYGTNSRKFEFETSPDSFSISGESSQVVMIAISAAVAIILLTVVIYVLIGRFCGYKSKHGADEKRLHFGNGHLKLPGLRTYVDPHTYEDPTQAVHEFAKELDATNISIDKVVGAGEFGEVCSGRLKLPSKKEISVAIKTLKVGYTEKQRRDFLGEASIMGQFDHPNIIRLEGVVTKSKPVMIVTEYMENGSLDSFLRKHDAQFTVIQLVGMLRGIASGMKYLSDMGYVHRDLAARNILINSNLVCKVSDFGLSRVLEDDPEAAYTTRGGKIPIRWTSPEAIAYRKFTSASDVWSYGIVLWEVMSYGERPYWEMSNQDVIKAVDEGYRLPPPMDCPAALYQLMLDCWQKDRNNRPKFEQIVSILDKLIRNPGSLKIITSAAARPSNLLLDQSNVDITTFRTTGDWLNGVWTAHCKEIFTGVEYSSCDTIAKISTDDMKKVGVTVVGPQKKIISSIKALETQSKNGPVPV
Description: as §1, §2

[6] = molecular target: T6, JNK2 (Homo sapiens, UniProt P45984)
T6 construct: purchased Invitrogen / ThermoFisher SelectScreen
T6 sequence (P45984 whole entry): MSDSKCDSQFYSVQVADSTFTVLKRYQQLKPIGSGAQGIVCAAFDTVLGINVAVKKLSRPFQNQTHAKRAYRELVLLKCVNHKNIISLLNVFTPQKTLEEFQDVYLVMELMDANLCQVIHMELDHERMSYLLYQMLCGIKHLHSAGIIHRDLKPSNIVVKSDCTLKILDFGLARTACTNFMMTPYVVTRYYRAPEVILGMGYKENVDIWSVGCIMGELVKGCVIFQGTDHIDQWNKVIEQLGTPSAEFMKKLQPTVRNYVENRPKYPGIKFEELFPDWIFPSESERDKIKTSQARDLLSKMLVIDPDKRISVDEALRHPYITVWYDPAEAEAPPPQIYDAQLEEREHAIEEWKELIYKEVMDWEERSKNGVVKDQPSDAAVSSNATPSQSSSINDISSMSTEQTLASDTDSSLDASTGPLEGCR
Description: as §1, §2

[7] = molecular target: T7, MEKK2 (Homo sapiens, UniProt Q9Y2U5)
T7 construct: purchased Invitrogen / ThermoFisher SelectScreen
Description: as §1, §2

[8] = molecular target: T8, MYLK (Homo sapiens, UniProt Q15746)
T8 construct: purchased Invitrogen / ThermoFisher SelectScreen
Description: as §1, §2

[9] = molecular target: T9, RIPK2 (Homo sapiens, UniProt O43353)
T9 construct: purchased Invitrogen / ThermoFisher SelectScreen
Description: as §1, §2

[10] = molecular target: T10, STK16 (Homo sapiens, UniProt O75716)
T10 construct: purchased Invitrogen / ThermoFisher SelectScreen
T10 sequence (O75716 whole entry): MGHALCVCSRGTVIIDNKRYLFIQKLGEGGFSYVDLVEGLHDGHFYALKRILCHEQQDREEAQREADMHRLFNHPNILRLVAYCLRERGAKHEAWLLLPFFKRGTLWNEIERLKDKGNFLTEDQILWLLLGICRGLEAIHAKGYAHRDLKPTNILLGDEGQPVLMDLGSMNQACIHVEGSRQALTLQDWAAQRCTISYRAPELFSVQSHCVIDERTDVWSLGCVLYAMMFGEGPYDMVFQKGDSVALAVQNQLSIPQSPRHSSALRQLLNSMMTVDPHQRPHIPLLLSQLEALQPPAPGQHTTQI
Description: as §1, §2

[11] = molecular target: T11, TAK1-TAB1 (Homo sapiens, UniProt O43318)
T11 construct: purchased Invitrogen / ThermoFisher SelectScreen
T11 sequence (O43318 with tags, fused parts or gaps limits assumed): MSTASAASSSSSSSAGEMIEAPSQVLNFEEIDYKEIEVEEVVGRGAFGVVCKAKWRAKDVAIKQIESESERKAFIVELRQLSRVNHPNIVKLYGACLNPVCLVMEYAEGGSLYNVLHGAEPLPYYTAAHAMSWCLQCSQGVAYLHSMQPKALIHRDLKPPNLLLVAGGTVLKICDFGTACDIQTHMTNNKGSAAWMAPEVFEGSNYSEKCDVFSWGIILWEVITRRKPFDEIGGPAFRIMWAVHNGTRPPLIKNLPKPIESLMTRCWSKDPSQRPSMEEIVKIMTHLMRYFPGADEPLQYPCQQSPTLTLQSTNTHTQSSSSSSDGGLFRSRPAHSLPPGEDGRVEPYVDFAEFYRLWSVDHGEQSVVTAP
Description: as §1, §2

[12] = molecular target: T12, TGFBR1 (Homo sapiens, UniProt P36897)
T12 construct: purchased Invitrogen / ThermoFisher SelectScreen
T12 sequence (P36897 34-503): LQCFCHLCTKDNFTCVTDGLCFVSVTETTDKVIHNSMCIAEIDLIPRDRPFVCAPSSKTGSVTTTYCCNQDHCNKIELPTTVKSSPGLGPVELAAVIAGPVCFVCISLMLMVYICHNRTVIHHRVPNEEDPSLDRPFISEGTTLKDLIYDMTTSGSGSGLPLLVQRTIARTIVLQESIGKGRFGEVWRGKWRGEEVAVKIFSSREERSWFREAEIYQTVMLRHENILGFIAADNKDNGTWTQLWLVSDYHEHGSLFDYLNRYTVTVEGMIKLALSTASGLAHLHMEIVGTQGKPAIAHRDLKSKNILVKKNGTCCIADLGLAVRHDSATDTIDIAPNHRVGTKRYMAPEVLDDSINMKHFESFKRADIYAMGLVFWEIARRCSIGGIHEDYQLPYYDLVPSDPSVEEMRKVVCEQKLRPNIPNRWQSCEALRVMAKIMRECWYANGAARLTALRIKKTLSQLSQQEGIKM
Description: as §1, §2

[13] = molecular target: T13, TNK2 (Homo sapiens, UniProt Q07912)
T13 construct: purchased Invitrogen / ThermoFisher SelectScreen
Description: as §1, §2

[14] = molecular target: T14, TTK (Homo sapiens, UniProt P33981)
T14 construct: purchased Invitrogen / ThermoFisher SelectScreen
T14 sequence (P33981 whole entry): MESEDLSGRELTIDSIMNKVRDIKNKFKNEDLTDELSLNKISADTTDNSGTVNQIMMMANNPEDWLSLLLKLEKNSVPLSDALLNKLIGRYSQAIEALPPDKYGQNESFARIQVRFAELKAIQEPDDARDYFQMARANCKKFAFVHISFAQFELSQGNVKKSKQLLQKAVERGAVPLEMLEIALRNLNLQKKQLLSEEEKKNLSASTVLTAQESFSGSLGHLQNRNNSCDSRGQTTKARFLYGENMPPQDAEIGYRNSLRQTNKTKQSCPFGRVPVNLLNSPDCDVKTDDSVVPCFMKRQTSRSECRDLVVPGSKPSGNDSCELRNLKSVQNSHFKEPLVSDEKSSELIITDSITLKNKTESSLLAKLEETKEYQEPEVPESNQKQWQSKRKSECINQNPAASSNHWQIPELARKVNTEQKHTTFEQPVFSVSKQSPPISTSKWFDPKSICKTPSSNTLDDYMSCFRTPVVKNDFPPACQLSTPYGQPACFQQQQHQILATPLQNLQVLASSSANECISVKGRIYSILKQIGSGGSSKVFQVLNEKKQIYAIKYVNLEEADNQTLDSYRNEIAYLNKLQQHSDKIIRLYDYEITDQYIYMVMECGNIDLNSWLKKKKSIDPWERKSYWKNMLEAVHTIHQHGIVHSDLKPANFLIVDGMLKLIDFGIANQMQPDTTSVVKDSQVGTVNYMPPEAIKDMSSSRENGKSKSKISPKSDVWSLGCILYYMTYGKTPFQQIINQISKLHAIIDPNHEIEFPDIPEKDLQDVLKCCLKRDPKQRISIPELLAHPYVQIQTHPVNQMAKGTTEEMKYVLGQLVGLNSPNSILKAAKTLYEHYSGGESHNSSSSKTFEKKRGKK
Description: as §1, §2

[15] = molecular target: T15, WEE1 (Homo sapiens, UniProt P30291)
T15 construct: purchased Invitrogen / ThermoFisher SelectScreen
Description: as §1, §2

[16] = molecular target: T16, ZAK (Homo sapiens, UniProt Q9NYL2)
T16 construct: purchased Invitrogen / ThermoFisher SelectScreen
Description: as §1, §2

## COc1cc(C(N)=O)nc(-c2cccc(C#C[C@]3(O)CCN(C)C3=O)c2)c1 [NIK SMI1]
[1]
  inhibition at 1 µM: -3.9%
[2]
  inhibition at 1 µM: -11.6%
[3]
  inhibition at 1 µM: 1.6%
[4]
  inhibition at 1 µM: 3.4%
[5]
  inhibition at 1 µM: -5.2%
[6]
  inhibition at 1 µM: 3%
[7]
  inhibition at 1 µM: 66.8%
[8]
  inhibition at 1 µM: 7.5%
[9]
  inhibition at 1 µM: -0.1%
[10]
  inhibition at 1 µM: 1%
[11]
  inhibition at 1 µM: 31.1%
[12]
  inhibition at 1 µM: -9.4%
[13]
  inhibition at 1 µM: 0.1%
[14]
  inhibition at 1 µM: 13.2%
[15]
  inhibition at 1 µM: 6.2%
[16]
  inhibition at 1 µM: -0.8%
